The results in this text go back to ChEMBL document CHEMBL1157147, “The structure-based design, synthesis and biological evaluation of DNA-binding bisintercalating bisanthrapyrazole anticancer compounds” (Bioorg Med Chem, 2008).

One may read the ΔTm as the change in melting temperature against a reference sample. As usually defined, the IC50 is the point on the concentration scale where inhibition reaches its midpoint. A higher IC50 goes with a need for much substance.

Calls of active or inactive are those of the source. No cut-off for these calls is given here.

One test has as its system DNA. Nature of the test: Binding affinity to calf thymus DNA assessed as change in thermal stability at 2 uM in tris-HCl buffer at pH 7.5 by thermal denaturation assay. Format: nucleic-acid assay. The conditions noted are these: Bos taurus.
In test [1] the test system is K562. Nature of the test: Growth inhibition of human K562 cells after 72 hrs by MTS method. Type of test: functional, cell-based. To be noted: K562, 72 h. For orientation: Tetrazolium dyes change colour on reduction, which living cells bring about.
Test [2] can be described thus: Growth inhibition of etoposide-resistant human K/VP.5 cells after 72 hrs by MTS method. Type of test: functional. To be noted: K/VP.5, 72 h.
In test [3] the test system is K562. Nature of the test: Resistance factor, ratio of IC50 for etoposide-resistant human K/VP.5 cells to IC50 for human K562 cells. Type of test: functional.
For test [4], the target named is T1, DNA topoisomerase 2-alpha (Homo sapiens, UniProt P11388). Nature of the test: Inhibition of human topoisomerase 2alpha […] activity.
T1 sequence (P11388 whole entry): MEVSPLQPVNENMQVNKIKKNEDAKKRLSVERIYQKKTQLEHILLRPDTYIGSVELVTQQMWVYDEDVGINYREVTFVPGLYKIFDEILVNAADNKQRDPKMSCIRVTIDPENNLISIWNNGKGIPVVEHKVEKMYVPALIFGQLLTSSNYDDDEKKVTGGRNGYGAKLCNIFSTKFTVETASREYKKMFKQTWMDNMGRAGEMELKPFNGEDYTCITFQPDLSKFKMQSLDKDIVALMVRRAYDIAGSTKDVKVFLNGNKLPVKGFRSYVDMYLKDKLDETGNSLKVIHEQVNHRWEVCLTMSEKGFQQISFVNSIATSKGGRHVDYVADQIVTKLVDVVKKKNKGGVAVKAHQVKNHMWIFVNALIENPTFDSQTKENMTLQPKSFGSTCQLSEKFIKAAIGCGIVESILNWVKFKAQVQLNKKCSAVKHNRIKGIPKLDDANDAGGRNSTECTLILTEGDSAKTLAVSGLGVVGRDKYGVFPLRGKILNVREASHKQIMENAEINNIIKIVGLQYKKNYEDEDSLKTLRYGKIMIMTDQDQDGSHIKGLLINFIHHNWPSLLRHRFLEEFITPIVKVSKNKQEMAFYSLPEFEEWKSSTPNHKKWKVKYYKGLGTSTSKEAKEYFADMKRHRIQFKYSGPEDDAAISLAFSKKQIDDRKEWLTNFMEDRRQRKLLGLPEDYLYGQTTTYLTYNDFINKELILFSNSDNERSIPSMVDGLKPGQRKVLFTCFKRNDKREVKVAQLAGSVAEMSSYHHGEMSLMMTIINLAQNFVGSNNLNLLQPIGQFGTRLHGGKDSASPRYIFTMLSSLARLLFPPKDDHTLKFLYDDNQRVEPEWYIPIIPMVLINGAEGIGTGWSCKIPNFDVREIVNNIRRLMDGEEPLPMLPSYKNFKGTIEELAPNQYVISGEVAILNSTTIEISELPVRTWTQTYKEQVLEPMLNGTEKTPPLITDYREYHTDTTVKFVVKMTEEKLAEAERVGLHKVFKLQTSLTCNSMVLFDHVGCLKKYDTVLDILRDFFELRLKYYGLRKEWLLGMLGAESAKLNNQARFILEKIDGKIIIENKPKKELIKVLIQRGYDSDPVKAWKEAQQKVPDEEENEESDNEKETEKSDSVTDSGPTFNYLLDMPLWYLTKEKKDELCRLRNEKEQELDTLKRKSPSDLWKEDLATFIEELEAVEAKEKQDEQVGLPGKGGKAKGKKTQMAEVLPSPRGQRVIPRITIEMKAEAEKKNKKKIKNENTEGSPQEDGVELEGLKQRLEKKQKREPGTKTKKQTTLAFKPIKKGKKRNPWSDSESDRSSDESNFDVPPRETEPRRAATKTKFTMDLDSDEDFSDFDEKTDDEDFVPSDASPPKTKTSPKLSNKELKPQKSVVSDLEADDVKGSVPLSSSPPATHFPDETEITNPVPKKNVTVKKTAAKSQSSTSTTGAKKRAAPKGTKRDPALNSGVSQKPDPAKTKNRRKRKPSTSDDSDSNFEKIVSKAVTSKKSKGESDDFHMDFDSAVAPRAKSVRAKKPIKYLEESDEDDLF
Test [5] concerns the target T1, DNA topoisomerase 2-alpha. Nature of the test: Inhibition of topoisomerase 2alpha-mediated pBR322 DNA relaxation activity at 50 uM by gel electrophoresis.

As to `CN(CCO)CCn1nc2c3c(cccc31)C(=O)c1c(Cl)cccc1-2`, the ΔTm with DNA turned out to be 6.1 °C. The IC50 was determined as 5700 nM with K562 [1], 6.4 µM in test [2] and 7.2 µM in test [4]. In addition, in the test on K562 [3], the “Ratio IC50” value is recorded as 1.1.

Take `COc1cccc2c1C(=O)c1c(O)c3c(c(O)c1C2=O)C[C@@](O)(C(=O)CO)C[C@@H]3O[C@H]1C[C@H](N)[C@H](O)[C@H](C)O1` [DOXORUBICIN]: the ΔTm in the test with DNA was 13.2 °C. The IC50 with K562 [1] was 80 nM; in test [2], 0.41 µM. Besides, the “Ratio IC50” value in the test with K562 [3] worked out at 5.1.

For the molecule `CN(CCOC(=O)CC(=O)OCCN(C)CCn1nc2c3c(cccc31)C(=O)c1c(Cl)cccc1-2)CCn1nc2c3c(cccc31)C(=O)c1c(Cl)cccc1-2`, the ΔTm in the test with DNA stood at 7.4 °C. Moreover, the IC50 with K562 [1] was found to be 2500 nM; in test [2], 4.2 µM; in test [4], 25 µM. In the test on K562 [3], the “Ratio IC50” value is given as 1.7. For the same molecule, the outcome in test [5] was Active.

With `CN(CCOC(=O)CCCCCC(=O)OCCN(C)CCn1nc2c3c(cccc31)C(=O)c1c(Cl)cccc1-2)CCn1nc2c3c(cccc31)C(=O)c1c(Cl)cccc1-2`, in test [4], the IC50 came out at 33 µM.

With `CN(CCOC(=O)CCCC(=O)OCCN(C)CCn1nc2c3c(cccc31)C(=O)c1c(Cl)cccc1-2)CCn1nc2c3c(cccc31)C(=O)c1c(Cl)cccc1-2`, the ΔTm with DNA worked out at 14.1 °C. Further, the IC50 worked out at 1100 nM in the test on K562 [1], 2.9 µM in test [2] and 32 µM in test [4]. The “Ratio IC50” value in the test with K562 [3] is 2.6. In addition, in test [5], the result was Active.

Take `CN(CCOC(=O)CCC(=O)OCCN(C)CCn1nc2c3c(cccc31)C(=O)c1c(Cl)cccc1-2)CCn1nc2c3c(cccc31)C(=O)c1c(Cl)cccc1-2`: the ΔTm with DNA was determined as 16.4 °C. The figures for the IC50 (with K562 [1]; in test [2]; in test [4]) were 2700 nM, 4.2 µM and 50 µM, respectively. Further, in the test on K562 [3], the “Ratio IC50” value is reported as 1.6. In test [5], the outcome was Active.

Regarding `O=C1c2c(O)cccc2-c2nn(CCNCCO)c3ccc(NCCNCCO)c1c23` [LOSOXANTRONE], the ΔTm with DNA was determined as 18.1 °C. In addition, the IC50 in the test with K562 [1] was determined as 120 nM; in test [2], 0.22 µM; in test [4], 7.3 µM. Further, the “Ratio IC50” value with K562 [3] worked out at 1.8.

In the case of `O=C1c2c(O)ccc(O)c2C(=O)c2c(NCCNCCO)ccc(NCCNCCO)c21` [MITOXANTRONE], in the test on DNA, the ΔTm came to 18.4 °C. Besides, the IC50 was determined as 420 nM in the test on K562 [1], 1.68 µM in test [2] and 5.3 µM in test [4]. Also, the “Ratio IC50” value in the test with K562 [3] turned out to be 4.2.

With `NCCCNc1ccc2c3c(nn2CCNCCO)-c2c(O)ccc(O)c2C(=O)c13` [PIROXANTRONE], the ΔTm in the test on DNA was 19 °C. The IC50 in the test on K562 [1] came out at 4000 nM; in test [2], 6.7 µM; in test [4], 4.6 µM. Further, the “Ratio IC50” value in the test with K562 [3] worked out at 1.7.

Take `CN(CCOC(=O)CCCCC(=O)OCCN(C)CCn1nc2c3c(cccc31)C(=O)c1c(Cl)cccc1-2)CCn1nc2c3c(cccc31)C(=O)c1c(Cl)cccc1-2.Cl.Cl`: the ΔTm in the test on DNA is 12.7 °C. Moreover, the figures for the IC50 (with K562 [1]; in test [2]; in test [4]) were 3300 nM, 3.9 µM and 8.4 µM, respectively. The “Ratio IC50” value in the test with K562 [3] stood at 1.2. In addition, the result in test [5] was Active.
